Source: patent US20100267561A1, “HERBICIDAL PYRIDAZINONE DERIVATIVES” (priority 2007, published 2010)

How the values were obtained:
Format in all cases: in vivo
[1] = tested on: canarygrass (Phalaris minor); test: Test C pre-/postemergence plant response; details: Preemergence
How it was run: (§1)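 Plant response was judged by eye against untreated controls following 15 to 25 days in a controlled growth environment, using 0 for no effect and 100 for complete control. Treatments were made both preemergence and postemergence, the latter on plants of 1- to 4-leaf stage.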

[2] = tested on: green foxtail (Setaria viridis); test: Test C pre-/postemergence plant response
How it was run: as §1

[3] = tested on: downy bromegrass (Bromus tectorum); test: Test C pre-/postemergence plant response
How it was run: as §1

[4] = tested on: blackgrass (Alopecurus myosuroides); test: Test C pre-/postemergence plant response
How it was run: as §1

[5] = tested on: pigweed (Amaranthus retroflexus); test: Test C pre-/postemergence plant response
How it was run: as §1

[6] = tested on: winter wheat (Triticum aestivum); test: Test C pre-/postemergence plant response
How it was run: as §1

[7] = tested on: wild mustard (Sinapis arvensis); test: Test C pre-/postemergence plant response
How it was run: as §1

[8] = tested on: canola (Brassica rapa); test: Test C pre-/postemergence plant response
How it was run: as §1

[9] = tested on: spring wheat (Triticum aestivum); test: Test C pre-/postemergence plant response
How it was run: as §1

[10] = tested on: spring barley (Hordeum vulgare); test: Test C pre-/postemergence plant response
How it was run: as §1

[11] = tested on: winter barley (Hordeum vulgare); test: Test C pre-/postemergence plant response
How it was run: as §1

[12] = tested on: windgrass (Apera spica-venti); test: Test C pre-/postemergence plant response
How it was run: as §1

[13] = tested on: Italian ryegrass (Lolium multiflorum); test: Test C pre-/postemergence plant response
How it was run: as §1

[14] = tested on: annual bluegrass (Poa annua); test: Test C pre-/postemergence plant response
How it was run: as §1

[15] = tested on: wild oat (Avena fatua); test: Test C pre-/postemergence plant response
How it was run: as §1

[16] = tested on: corn (Zea mays); test: Test A pre-/postemergence plant response
How it was run: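 Seeds sown in loam–sand blend; test chemicals in non-phytotoxic solvent with surfactant applied preemergence as directed soil spray and, concurrently, postemergence to plants 2–10 cm tall at one- to two-leaf stage. Greenhouse ~10 days, then visual injury rating vs untreated controls on 0–100 scale (0 = no effect, 100 = complete control).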

[17] = Postemergence, 8 g ai/ha, scale 0 to 100, 0 no effect, 100 complete control
[18] = Postemergence, 16 g ai/ha, scale 0 to 100, 0 no effect, 100 complete control
[19] = Postemergence, 31 g ai/ha, scale 0 to 100, 0 no effect, 100 complete control
[20] = Postemergence, 62 g ai/ha, scale 0 to 100, 0 no effect, 100 complete control
[21] = Preemergence, 8 g ai/ha, scale 0 to 100 (0 no effect, 100 complete control)
[22] = Preemergence, 16 g ai/ha, scale 0 to 100 (0 no effect, 100 complete control)
[23] = Preemergence, 31 g ai/ha, scale 0 to 100 (0 no effect, 100 complete control)
[24] = Preemergence, 62 g ai/ha, scale 0 to 100, 0 no effect, 100 complete control

Cc1nn(C)c(=O)c(-n2nc(-c3ccc(Cl)cc3)cc2C)c1O [Compound 15]
Plant response rating, Canarygrass ([1]; 8 g ai/ha, scale 0 to 100 (0 no effect, 100 complete control)): 20
Plant response rating, Canarygrass ([1]; 16 g ai/ha, scale 0 to 100 (0 no effect, 100 complete control)): 70
Plant response rating, Canarygrass ([1]; 31 g ai/ha, scale 0 to 100 (0 no effect, 100 complete control)): 80
Plant response rating, Canarygrass ([1]; 62 g ai/ha, scale 0 to 100, 0 no effect, 100 complete control): 95
Plant response rating, Foxtail, Green [2, 17]: 90
Plant response rating, Foxtail, Green [2, 18]: 95
Plant response rating, Foxtail, Green [2, 19]: 98
Plant response rating, Foxtail, Green [2, 20]: 98
Plant response rating, Foxtail, Green [2, 21]: 60
Plant response rating, Foxtail, Green [2, 22]: 98
Plant response rating, Foxtail, Green [2, 23]: 100
Plant response rating, Foxtail, Green [2, 24]: 100
Plant response rating, Bromegrass, Downy [3, 17]: 0
Plant response rating, Bromegrass, Downy [3, 18]: 15
Plant response rating, Bromegrass, Downy [3, 19]: 20
Plant response rating, Bromegrass, Downy [3, 20]: 30
Plant response rating, Bromegrass, Downy [3, 21]: 0
Plant response rating, Bromegrass, Downy [3, 22]: 20
Plant response rating, Bromegrass, Downy [3, 23]: 35
Plant response rating, Bromegrass, Downy [3, 24]: 70
Plant response rating, Blackgrass [4, 17]: 75
Plant response rating, Blackgrass [4, 18]: 95
Plant response rating, Blackgrass [4, 19]: 98
Plant response rating, Blackgrass [4, 20]: 100
Plant response rating, Blackgrass [4, 21]: 70
Plant response rating, Blackgrass [4, 22]: 80
Plant response rating, Blackgrass [4, 23]: 95
Plant response rating, Blackgrass [4, 24]: 98
Plant response rating, Pigweed [5, 17]: 0
Plant response rating, Pigweed [5, 18]: 0
Plant response rating, Pigweed [5, 19]: 0
Plant response rating, Pigweed [5, 20]: 0
Plant response rating, Pigweed [5, 21]: 0
Plant response rating, Pigweed [5, 22]: 0
Plant response rating, Pigweed [5, 23]: 0
Plant response rating, Pigweed [5, 24]: 0
Plant response rating, Wheat, Winter [6, 17]: 0
Plant response rating, Wheat, Winter [6, 18]: 0
Plant response rating, Wheat, Winter [6, 19]: 0
Plant response rating, Wheat, Winter [6, 20]: 25
Plant response rating, Wheat, Winter [6, 21]: 0
Plant response rating, Wheat, Winter [6, 22]: 0
Plant response rating, Wheat, Winter [6, 23]: 20
Plant response rating, Wheat, Winter [6, 24]: 25
Plant response rating, Mustard, Wild [7, 17]: 0
Plant response rating, Mustard, Wild [7, 18]: 0
Plant response rating, Mustard, Wild [7, 19]: 0
Plant response rating, Mustard, Wild [7, 20]: 20
Plant response rating, Mustard, Wild [7, 21]: 0
Plant response rating, Mustard, Wild [7, 22]: 0
Plant response rating, Mustard, Wild [7, 23]: 0
Plant response rating, Canola [8, 17]: 0
Plant response rating, Canola [8, 18]: 0
Plant response rating, Canola [8, 19]: 0
Plant response rating, Canola [8, 20]: 0
Plant response rating, Canola [8, 21]: 0
Plant response rating, Canola [8, 22]: 0
Plant response rating, Canola [8, 23]: 0
Plant response rating, Canola [8, 24]: 0
Plant response rating, Wheat, Spring [9, 17]: 0
Plant response rating, Wheat, Spring [9, 18]: 0
Plant response rating, Wheat, Spring [9, 19]: 15
Plant response rating, Wheat, Spring [9, 20]: 70
Plant response rating, Wheat, Spring [9, 21]: 0
Plant response rating, Wheat, Spring [9, 22]: 10
Plant response rating, Wheat, Spring [9, 23]: 35
Plant response rating, Wheat, Spring [9, 24]: 70
Plant response rating, Barley, Spring [10, 17]: 0
Plant response rating, Barley, Spring [10, 18]: 0
Plant response rating, Barley, Spring [10, 19]: 0
Plant response rating, Barley, Spring [10, 20]: 50
Plant response rating, Barley, Spring [10, 21]: 0
Plant response rating, Barley, Spring [10, 22]: 0
Plant response rating, Barley, Spring [10, 23]: 40
Plant response rating, Barley, Spring [10, 24]: 65
Plant response rating, Barley, Winter [11, 17]: 0
Plant response rating, Barley, Winter [11, 18]: 0
Plant response rating, Barley, Winter [11, 19]: 10
Plant response rating, Barley, Winter [11, 20]: 90
Plant response rating, Barley, Winter [11, 21]: 0
Plant response rating, Barley, Winter [11, 22]: 20
Plant response rating, Barley, Winter [11, 23]: 50
Plant response rating, Barley, Winter [11, 24]: 60
Plant response rating, Windgrass [12, 17]: 0
Plant response rating, Windgrass [12, 18]: 0
Plant response rating, Windgrass [12, 19]: 0
Plant response rating, Windgrass [12, 20]: 40
Plant response rating, Windgrass [12, 22]: 25
Plant response rating, Windgrass [12, 23]: 75
Plant response rating, Windgrass [12, 24]: 95
Plant response rating, Ryegrass, Italian [13, 17]: 50
Plant response rating, Ryegrass, Italian [13, 18]: 100
Plant response rating, Ryegrass, Italian [13, 19]: 100
Plant response rating, Ryegrass, Italian [13, 20]: 100
Plant response rating, Ryegrass, Italian [13, 21]: 15
Plant response rating, Ryegrass, Italian [13, 22]: 100
Plant response rating, Ryegrass, Italian [13, 23]: 100
Plant response rating, Ryegrass, Italian [13, 24]: 100
Plant response rating, Bluegrass [14, 17]: 0
Plant response rating, Bluegrass [14, 18]: 25
Plant response rating, Bluegrass [14, 19]: 40
Plant response rating, Bluegrass [14, 20]: 50
Plant response rating, Bluegrass [14, 21]: 40
Plant response rating, Bluegrass [14, 22]: 60
Plant response rating, Bluegrass [14, 23]: 75
Plant response rating, Bluegrass [14, 24]: 90
Plant response rating, Oat, Wild [15, 17]: 0
Plant response rating, Oat, Wild [15, 18]: 25
Plant response rating, Oat, Wild [15, 19]: 90
Plant response rating, Oat, Wild [15, 20]: 90
Plant response rating, Oat, Wild [15, 21]: 0
Plant response rating, Oat, Wild [15, 23]: 50
Plant response rating, Oat, Wild [15, 24]: 65
Plant response rating, Corn ([16]; Postemergence, 125 g ai/ha, 0 to 100 scale, 0 no effect, 100 complete control): 70
Plant response rating, Corn ([16]; Postemergence, 500 g ai/ha, 0 to 100 scale, 0 no effect, 100 complete control): 90
Plant response rating, Corn ([16]; Preemergence, 125 g ai/ha, 0 to 100 scale (0 no effect, 100 complete control)): 50
Plant response rating, Corn ([16]; Preemergence, 500 g ai/ha, 0 to 100 scale (0 no effect, 100 complete control)): 90
